Results reported in BindingDB's records for patent US10227314 (Sova Pharmaceuticals, 2019).

Target: Cystathionine gamma-lyase (Homo sapiens, UniProt P32929)
Test: CSE In Vitro Assay

Cystathionine gamma-lyase, sequence (P32929 whole entry): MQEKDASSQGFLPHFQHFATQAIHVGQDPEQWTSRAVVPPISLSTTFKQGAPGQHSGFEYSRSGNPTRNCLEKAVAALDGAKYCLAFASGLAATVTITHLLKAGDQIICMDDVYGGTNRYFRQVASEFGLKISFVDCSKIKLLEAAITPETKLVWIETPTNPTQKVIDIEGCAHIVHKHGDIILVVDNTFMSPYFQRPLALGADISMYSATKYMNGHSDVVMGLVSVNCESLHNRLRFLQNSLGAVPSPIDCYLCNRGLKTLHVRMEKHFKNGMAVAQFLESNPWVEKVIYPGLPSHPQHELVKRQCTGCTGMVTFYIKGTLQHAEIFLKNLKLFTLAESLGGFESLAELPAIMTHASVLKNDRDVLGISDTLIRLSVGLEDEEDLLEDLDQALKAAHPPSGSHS

`N#CCC(N)c1nnn[nH]1` (configuration not stated) [US10227314, Example 1] was tested, and the IC50 was > 100 µM.
With `C#CC[C@H](N)c1nnn[nH]1` [US10227314, Example 2] the IC50 was < 25 µM.
